Where “and” joins values, the source holds several entries; their conditions need not be identical. Equal values may be shown once.
Assays:
[1] = tested on: Human CB CD34+-enriched cells; test: Culture of CB CD34+-enriched cells in erythroid differentiation medium; assay type: cell-based; details: 14 days
Description: Human cord blood (CB) was collected after obtaining written informed consent from donors, following our institutional Research Ethics Committee guidelines. Mononuclear cells (MNCs) were first separated over a Ficoll-Hypaque™ density gradient (GE Healthcare), then cryopreserved at −180° C. in Cryostor CS10™ medium ([…] Technologies). Thawed MNCs from six to eight CB were pooled before CD34 isolation. CB CD34+ cells were enriched by positive selection using the EasySep™ CD34 enrichment kit, according to the manufacturer's instructions ([…] Technologies).
Human CB CD34+-enriched cells (purity≥90%) were seeded in 24-well plates at 100 000 cells/mL in expansion medium consisting of Eave's basal medium (Iscove's modified Dulbecco's medium (IMDM), 20% BIT ([…] bovine serum albumin, 10 μg/mL bovine pancreatic insulin, 200 μg/mL human transferrin; […] Technologies), 0.1 mg/mL low-density lipoprotein ([…] Technologies), 50 μM 2-mercaptoethanol) supplemented with 20 ng/mL SCF (Peprotech) and 2 U/mL erythropoietin (EPO; Feldan Therapeutics). Cultures were maintained in a humidified atmosphere with 5% CO2 at 37° C. or 39° C., as indicated in the Examples. Cells were diluted at 300 000 cells/mL with fresh medium every 3 to 4 days.
Cellular counts and viability were determined by adding Solution 18 (Acridine Orange and DAPI solution, ChemomMetec) and using NucleoCounter™ NC-250 for detection (ChemomMetec).
For cells expanded in conditions favoring differentiation towards the erythroid lineage, surface markers were detected using the following antibodies: CD34-FITC, CD71-APC and CD235-PE. All antibodies were purchased from BD Biosciences, except for CD34-FITC which was purchased from Immunotech. 7AAD was used as a viability dye. All samples were analyzed on an Accuri™ C6 flow cytometer (BD Biosciences), and raw data were analyzed with FCS Express 5 Flow Research Edition software from at least 15 000 viable cell events acquired for each sample.
Cellular counts and viability were determined as described in Example 6.5.

[2] = tested on: CD34+ cells from human umbilical cord blood; test: Culture of cord blood CD34+ cells towards the megakaryocytic lineage (StemSpan ACF + BS1), flow cytometry; assay type: cell-based; details: for Percentage of cells bearing CD34+ / Percentage of cells bearing CD34+/CD41+ / Percentage of cells bearing CD34+/CD41− / Percentage of cells bearing CD41+ / Percentage of cells bearing CD41+/CD42+ / Percentage of cells bearing CD42+ / Percentage of cells bearing CD45RA+ / Percentage of cells bearing CD235+: ACF + BS1
Description: CD34+ cells were isolated from human umbilical cord blood by positive selection according to standard procedures. Purified CD34+ cells from either single units or pooled from several units of cord blood were seeded in 1 mL of the appropriate culture medium in 24-well plates at a density of approximately 10^5 cells/mL. Cells were maintained at a density of 10^5-10^6 cells/mL throughout the culture by dilution and/or medium replacement.
For culture and differentiation towards the megakaryocytic lineage, purified CD34+ cells were cultured in StemSpan™ ACF medium ([…]™ Technologies, Vancouver, BC, Canada) supplemented with antibiotics and the “BS1” cytokine cocktail described previously (Cortin et al, 2005), and cell counts were performed on days 6, 10, and 14.
Cell counts and viability were measured using the NucleoCounter NC-250™ Viability and Cell Count Assay system (ChemoMetec Inc., Davis, Calif.), according to the manufacturer's instructions.
Cell phenotypes were determined by flow cytometry on the indicated days using the following panel of labeled primary antibodies: CD34-FITC, CD45RA-APC, CD41a-APC, CD42b-PE, and CD235-PE.
CD34+ cells were isolated and cultured for differentiation towards the megakaryocytic lineage as generally described in Example 1.2. […] Flow cytometry was used to monitor the expansion of CD34+/CD41+ MKP cells over time, as described in Example 1.3.
More thorough cell phenotypic profiles of the CD34+ cells isolated and cultured in Example 2 were determined on days 6, 10 and 14 by flow cytometry as described in Example 1.3.

Cl.Cn1nnc(-c2ccc3c(c2)[nH]c2nc(Cc4ccccc4)nc(N[C@H]4CC[C@H](N)CC4)c23)n1 [PIC, (1r,4r)-N1-(2-benzyl-7-(2-methyl-2H-tetrazol-5-yl)-9H-pyrimido[4,5-b]indol-4-yl)cyclohexane-1,4-diamine hydrochloride] was tested, and the “mild hyperthermia and PIC on expansion of CB CD34+ cells” value ([1]; 39° C. + PIC 35 nM, erythroid differentiation medium, FIG. 12) was “additive effect”, the “mild hyperthermia and PIC on expansion of CB CD34+/CD71+ cells (erythroid progenitors)” value ([1]; 39° C. + PIC 35 nM, erythroid differentiation medium, FIG. 13) was “additive effect” and the “effect of addition of PIC on expansion of CD71+ erythroid precursors” value ([1]; PIC 35 nM, 37° C. and 39° C., FIG. 10) was “decrease”. For the same molecule, the “effect of addition of PIC on total cell expansion” value ([1]; PIC 35 nM, 37° C. and 39° C., FIG. 11) was “decrease”, the “purity of CD34+/CD41+ cells” value ([2]; 39° C. + PIC 35 nM, data not shown) was “above 40%” and the “Percentage of cells bearing CD34+” value ([2]; Day 6, 37° C. + PIC 35 nM) was 98.38%. The “Percentage of cells bearing CD34+/CD41+” value ([2]; Day 6, 37° C. + PIC 35 nM) was 29.54%, the “Percentage of cells bearing CD34+/CD41−” value ([2]; Day 6, 37° C. + PIC 35 nM) was 68.55% and the “Percentage of cells bearing CD41+” value ([2]; Day 6, 37° C. + PIC 35 nM) was 29.27%. For the same molecule, the “Percentage of cells bearing CD41+/CD42+” value ([2]; Day 6, 37° C. + PIC 35 nM) was 1.71%, the “Percentage of cells bearing CD42+” value ([2]; Day 6, 37° C. + PIC 35 nM) was 2.48% and the “Percentage of cells bearing CD45RA+” value ([2]; Day 6, 37° C. + PIC 35 nM) was 71.55%. For the same molecule, the “Percentage of cells bearing CD235+” value ([2]; Day 6, 37° C. + PIC 35 nM) was 11.67%, the “Percentage of cells bearing CD34+” value ([2]; Day 6, 39° C. + PIC 35 nM) was 97.19% and the “Percentage of cells bearing CD34+/CD41+” value ([2]; Day 6, 39° C. + PIC 35 nM) was 48.85%. The “Percentage of cells bearing CD34+/CD41−” value ([2]; Day 6, 39° C. + PIC 35 nM) was 48.02%, the “Percentage of cells bearing CD41+” value ([2]; Day 6, 39° C. + PIC 35 nM) was 49.84% and the “Percentage of cells bearing CD41+/CD42+” value ([2]; Day 6, 39° C. + PIC 35 nM) was 7.95%. The “Percentage of cells bearing CD42+” value ([2]; Day 6, 39° C. + PIC 35 nM) was 8.31%, the “Percentage of cells bearing CD45RA+” value ([2]; Day 6, 39° C. + PIC 35 nM) was 58.97% and the “Percentage of cells bearing CD235+” value ([2]; Day 6, 39° C. + PIC 35 nM) was 19.51%. The “Percentage of cells bearing CD34+” value ([2]; Day 10, 37° C. + PIC 35 nM) was 84.39%, the “Percentage of cells bearing CD34+/CD41+” value ([2]; Day 10, 37° C. + PIC 35 nM) was 20.21% and the “Percentage of cells bearing CD34+/CD41−” value ([2]; Day 10, 37° C. + PIC 35 nM) was 64.40%. The “Percentage of cells bearing CD41+” value ([2]; Day 10, 37° C. + PIC 35 nM) was 24.84%, the “Percentage of cells bearing CD41+/CD42+” value ([2]; Day 10, 37° C. + PIC 35 nM) was 1.30% and the “Percentage of cells bearing CD42+” value ([2]; Day 10, 37° C. + PIC 35 nM) was 2.55%. For the same molecule, the “Percentage of cells bearing CD45RA+” value ([2]; Day 10, 37° C. + PIC 35 nM) was 76.43%, the “Percentage of cells bearing CD235+” value ([2]; Day 10, 37° C. + PIC 35 nM) was 7.45% and the “Percentage of cells bearing CD34+” value ([2]; Day 10, 39° C. + PIC 35 nM) was 87.29%. The “Percentage of cells bearing CD34+/CD41+” value ([2]; Day 10, 39° C. + PIC 35 nM) was 67.10%, the “Percentage of cells bearing CD34+/CD41−” value ([2]; Day 10, 39° C. + PIC 35 nM) was 21.37% and the “Percentage of cells bearing CD41+” value ([2]; Day 10, 39° C. + PIC 35 nM) was 73.31%. The “Percentage of cells bearing CD41+/CD42+” value ([2]; Day 10, 39° C. + PIC 35 nM) was 17.09%, the “Percentage of cells bearing CD42+” value ([2]; Day 10, 39° C. + PIC 35 nM) was 17.30% and the “Percentage of cells bearing CD45RA+” value ([2]; Day 10, 39° C. + PIC 35 nM) was 46.94%. The “Percentage of cells bearing CD235+” value ([2]; Day 10, 39° C. + PIC 35 nM) was 14.40%, the “Percentage of cells bearing CD34+” value ([2]; Day 14, 37° C. + PIC 35 nM) was 69.53% and the “Percentage of cells bearing CD34+/CD41+” value ([2]; Day 14, 37° C. + PIC 35 nM) was 11% and 11.01%. The “Percentage of cells bearing CD34+/CD41−” value ([2]; Day 14, 37° C. + PIC 35 nM) was 54.97%, the “Percentage of cells bearing CD41+” value ([2]; Day 14, 37° C. + PIC 35 nM) was 23.65% and the “Percentage of cells bearing CD42+” value ([2]; Day 14, 37° C. + PIC 35 nM) was 3.02%. The “Percentage of cells bearing CD45RA+” value ([2]; Day 14, 37° C. + PIC 35 nM) was 61.90%, the “Percentage of cells bearing CD235+” value ([2]; Day 14, 37° C. + PIC 35 nM) was 2.90% and the “Percentage of cells bearing CD34+” value ([2]; Day 14, 39° C. + PIC 35 nM) was 88.56%. For the same molecule, the “Percentage of cells bearing CD34+/CD41+” value ([2]; Day 14, 39° C. + PIC 35 nM) was 76.5% and 76.46%, the “Percentage of cells bearing CD34+/CD41−” value ([2]; Day 14, 39° C. + PIC 35 nM) was 10.25% and the “Percentage of cells bearing CD41+” value ([2]; Day 14, 39° C. + PIC 35 nM) was 87.90%. For the same molecule, the “Percentage of cells bearing CD42+” value ([2]; Day 14, 39° C. + PIC 35 nM) was 27.09%, the “Percentage of cells bearing CD45RA+” value ([2]; Day 14, 39° C. + PIC 35 nM) was 27.09% and the “Percentage of cells bearing CD235+” value ([2]; Day 14, 39° C. + PIC 35 nM) was 12.61%. For the same molecule, the “Percentage of cells bearing CD41+/CD42+” value ([2]; Day 14, 39° C. + PIC 35 nM, hydrochloride) was 27% and 27.04%.
